From publication PMC5218480 (PLoS ONE, 2017) come the findings set out here.

The test system of the experiment is MV-4-11 cells. The experiment in a line: Gene expression microarray analysis (Affymetrix PrimeView) and GSEA. Format: cell-based, human. Details: RFU PODN (11730768_x_at) / Fold change /veh PODN (11730768_x_at) / RFU LINC00158 (11744669_a_at) / Fold change /veh LINC00158 (11744669_a_at) / RFU DUSP10 (11751237_a_at) / Fold change /veh DUSP10 (11751237_a_at) / RFU ID3 (11757404_x_at) / Fold change /veh ID3 (11757404_x_at) / RFU PLEKHG5 (11737974_s_at) / Fold change /veh PLEKHG5 (11737974_s_at) / RFU LRRC4B (11730491_at) / Fold change /veh LRRC4B (11730491_at) / RFU GIMAP4 (11747438_a_at) / Fold change /veh GIMAP4 (11747438_a_at) / RFU KRT8 (11758183_x_at) / Fold change /veh KRT8 (11758183_x_at) / RFU CNN1 (11734310_a_at) / Fold change /veh CNN1 (11734310_a_at) / RFU VPS37D (11726825_at) / Fold change /veh VPS37D (11726825_at) / RFU C10orf10 (11716522_x_at) / Fold change /veh C10orf10 (11716522_x_at) / RFU KIR2DL2 /// KIR2DL4 /// KIR2DL5A /// KIR2DL5B /// KIR2DS1 /// KIR2DS2 /// KIR2DS3 /// KIR2DS4 /// KIR3DL3 /// KIR3DL3 /// KIR3DS1 (11738374_at) / Fold change /veh KIR2DL2 /// KIR2DL4 /// KIR2DL5A /// KIR2DL5B /// KIR2DS1 /// KIR2DS2 /// KIR2DS3 /// KIR2DS4 /// KIR3DL3 /// KIR3DL3 /// KIR3DS1 (11738374_at) / RFU C1QL1 (11718748_at) / Fold change /veh C1QL1 (11718748_at) / RFU TMPRSS4 (11747572_a_at) / Fold change /veh TMPRSS4 (11747572_a_at) / RFU HAMP (11756126_x_at) / Fold change /veh HAMP (11756126_x_at) / RFU RNFT2 (11725882_a_at) / Fold change /veh RNFT2 (11725882_a_at) / RFU NR4A2 (11747474_a_at) / Fold change /veh NR4A2 (11747474_a_at) / RFU ABCC12 (11746883_a_at) / Fold change /veh ABCC12 (11746883_a_at) / RFU TMEM136 (11760407_x_at) / Fold change /veh TMEM136 (11760407_x_at) / RFU CLDN22 /// WWC2 (11732394_at) / Fold change /veh CLDN22 /// WWC2 (11732394_at) / RFU HLA-DPB1 (11760878_x_at) / Fold change /veh HLA-DPB1 (11760878_x_at) / RFU SPINT1 (11716480_a_at) / Fold change /veh SPINT1 (11716480_a_at) / RFU GAP43 (11754022_s_at) / Fold change /veh GAP43 (11754022_s_at) / RFU A4GNT (11735810_at) / Fold change /veh A4GNT (11735810_at) / RFU PRB3 (11715151_x_at) / Fold change /veh PRB3 (11715151_x_at) / RFU TUBB4B (11761932_at) / Fold change /veh TUBB4B (11761932_at) / RFU CAPN14 (11732068_a_at) / Fold change /veh CAPN14 (11732068_a_at) / RFU TMCC2 (11721928_a_at) / Fold change /veh TMCC2 (11721928_a_at) / RFU IRGQ (11745062_a_at) / Fold change /veh IRGQ (11745062_a_at) / RFU FAM174B (11720279_a_at) / Fold change /veh FAM174B (11720279_a_at) / RFU TMPRSS4 (11748680_a_at) / Fold change /veh TMPRSS4 (11748680_a_at) / RFU FAM212B (11763350_a_at) / Fold change /veh FAM212B (11763350_a_at) / RFU PLEKHG5 (11743358_a_at) / Fold change /veh PLEKHG5 (11743358_a_at) / RFU ZSCAN30 (11745921_a_at) / Fold change /veh ZSCAN30 (11745921_a_at) / RFU CMKLR1 (11741424_a_at) / Fold change /veh CMKLR1 (11741424_a_at) / RFU LOC101060620 /// MAPK8IP1 (11723275_at) / Fold change /veh LOC101060620 /// MAPK8IP1 (11723275_at) / RFU SPTSSB (11747773_x_at) / Fold change /veh SPTSSB (11747773_x_at) / RFU PRSS12 (11739890_at) / Fold change /veh PRSS12 (11739890_at) / RFU BIN1 (11741810_x_at) / Fold change /veh BIN1 (11741810_x_at) / RFU WNT11 (11732464_a_at) / Fold change /veh WNT11 (11732464_a_at) / RFU C10orf10 (11716521_a_at) / Fold change /veh C10orf10 (11716521_a_at) / RFU C5orf56 (11738089_at) / Fold change /veh C5orf56 (11738089_at) / RFU CYB561 (11721691_x_at) / Fold change /veh CYB561 (11721691_x_at) / RFU ANKRD19P (11752326_a_at) / Fold change /veh ANKRD19P (11752326_a_at) / RFU OR2T12 /// OR2T33 /// OR2T8 (11738714_s_at) / Fold change /veh OR2T12 /// OR2T33 /// OR2T8 (11738714_s_at) / RFU VCAN (11748164_a_at) / Fold change /veh VCAN (11748164_a_at) / RFU JSRP1 (11732532_at) / Fold change /veh JSRP1 (11732532_at) / RFU KRTAP10-11 (11738290_x_at) / Fold change /veh KRTAP10-11 (11738290_x_at) / RFU MYO3A (11730013_a_at) / Fold change /veh MYO3A (11730013_a_at) / RFU EBF3 (11725865_a_at) / Fold change /veh EBF3 (11725865_a_at) / RFU CAMK2N1 (11719241_x_at) / Fold change /veh CAMK2N1 (11719241_x_at) / RFU C5orf56 (11738088_a_at) / Fold change /veh C5orf56 (11738088_a_at) / RFU OLFML3 (11715873_a_at) / Fold change /veh OLFML3 (11715873_a_at) / RFU LOC100653217 /// NTM (11731650_a_at) / Fold change /veh LOC100653217 /// NTM (11731650_a_at) / RFU MAPK11 (11762145_a_at) / Fold change /veh MAPK11 (11762145_a_at) / RFU FIZ1 (11724087_x_at) / Fold change /veh FIZ1 (11724087_x_at) / RFU OASL (11726364_x_at) / Fold change /veh OASL (11726364_x_at) / RFU SOX15 (11748057_x_at) / Fold change /veh SOX15 (11748057_x_at) / RFU CD79A (11719716_a_at) / Fold change /veh CD79A (11719716_a_at) / RFU HIST1H1D (11736915_at) / Fold change /veh HIST1H1D (11736915_at) / RFU CASKIN2 (11723855_a_at) / Fold change /veh CASKIN2 (11723855_a_at) / RFU LOC730098 (11760151_x_at) / Fold change /veh LOC730098 (11760151_x_at) / RFU OR4N2 (11742367_at) / Fold change /veh OR4N2 (11742367_at) / RFU PRRT2 (11749266_a_at) / Fold change /veh PRRT2 (11749266_a_at) / RFU SNX32 (11753110_a_at) / Fold change /veh SNX32 (11753110_a_at) / RFU CDHR5 (11726645_a_at) / Fold change /veh CDHR5 (11726645_a_at) / RFU RCAN1 (11760418_a_at) / Fold change /veh RCAN1 (11760418_a_at) / RFU FAM167A (11723789_a_at) / Fold change /veh FAM167A (11723789_a_at) / RFU FAM26E (11764081_at) / Fold change /veh FAM26E (11764081_at) / RFU ISYNA1 (11749810_s_at) / Fold change /veh ISYNA1 (11749810_s_at) / RFU ACY1 (11761880_at) / Fold change /veh ACY1 (11761880_at) / RFU 11764098_at / Fold change /veh 11764098_at / RFU SAMD14 (11745864_x_at) / Fold change /veh SAMD14 (11745864_x_at) / RFU NPB (11741838_a_at) / Fold change /veh NPB (11741838_a_at) / RFU TMPRSS6 (11731388_a_at) / Fold change /veh TMPRSS6 (11731388_a_at) / RFU KRTAP10-2 (11738614_at) / Fold change /veh KRTAP10-2 (11738614_at) / RFU ARHGAP8 /// PRR5-ARHGAP8 (11727945_x_at) / Fold change /veh ARHGAP8 /// PRR5-ARHGAP8 (11727945_x_at) / RFU KRTAP5-7 /// NADSYN1 (11734609_at) / Fold change /veh KRTAP5-7 /// NADSYN1 (11734609_at) / RFU RASL12 (11751679_a_at) / Fold change /veh RASL12 (11751679_a_at) / RFU CDKN2B (11736163_a_at) / Fold change /veh CDKN2B (11736163_a_at) / RFU PRF1 (11729649_at) / Fold change /veh PRF1 (11729649_at) / RFU, ZNF638 /// ZNF638-IT1 / Fold change vs veh, ZNF638 /// ZNF638-IT1 / RFU, PANK3 / Fold change vs veh, PANK3 / RFU, SH3YL1 / Fold change vs veh, SH3YL1 / RFU, ZEB2 / Fold change vs veh, ZEB2 / RFU, NRIP1 / Fold change vs veh, NRIP1 / RFU, PTTG1IP / Fold change vs veh, PTTG1IP / RFU, CAPN2 / Fold change vs veh, CAPN2 / RFU, MED14 / Fold change vs veh, MED14 / RFU, SNORA58 / Fold change vs veh, SNORA58 / RFU, C1orf63 / Fold change vs veh, C1orf63 / RFU, LRRFIP1 / Fold change vs veh, LRRFIP1 / RFU, NDUFAF7 / Fold change vs veh, NDUFAF7 / RFU, SLC12A2 / Fold change vs veh, SLC12A2 / RFU, IBTK / Fold change vs veh, IBTK / RFU, ESF1 / Fold change vs veh, ESF1 / Fold change vs veh, TMEM50B / RFU, TAOK1 / Fold change vs veh, TAOK1 / RFU, ACBD3 / Fold change vs veh, ACBD3 / RFU, TMA16 / Fold change vs veh, TMA16 / RFU, RWDD3 / Fold change vs veh, RWDD3 / RFU, BCAT1 / Fold change vs veh, BCAT1 / RFU, EDEM3 / Fold change vs veh, EDEM3 / RFU, TMEM33 / Fold change vs veh, TMEM33 / RFU, WDR75 / Fold change vs veh, WDR75 / RFU, AHCTF1 / Fold change vs veh, AHCTF1 / RFU, TFRC / Fold change vs veh, TFRC / RFU, ZDHHC17 / Fold change vs veh, ZDHHC17 / RFU, NOM1 / Fold change vs veh, NOM1 / RFU, ARL8B / Fold change vs veh, ARL8B / RFU, ZBTB11 / Fold change vs veh, ZBTB11 / RFU, TAMM41 / Fold change vs veh, TAMM41 / RFU, KIAA1704 /// LOC100996395 / Fold change vs veh, KIAA1704 /// LOC100996395 / RFU, ING1 / Fold change vs veh, ING1 / RFU, TRMT61B / Fold change vs veh, TRMT61B / RFU, FUBP3 / Fold change vs veh, FUBP3 / RFU, TP53 / Fold change vs veh, TP53 / RFU, TNKS2 / Fold change vs veh, TNKS2 / RFU, ZFP14 / Fold change vs veh, ZFP14 / RFU, ACTR2 / Fold change vs veh, ACTR2 / RFU, PPP3R1 / Fold change vs veh, PPP3R1 / RFU, PIK3R1 / Fold change vs veh, PIK3R1 / RFU, HNRNPA1 / Fold change vs veh, HNRNPA1 / RFU, RNF170 / Fold change vs veh, RNF170 / RFU, ZNF28 / Fold change vs veh, ZNF28 / RFU, RNGTT / Fold change vs veh, RNGTT / RFU, OGT / Fold change vs veh, OGT / RFU, BRD1 / Fold change vs veh, BRD1 / RFU, MARS / Fold change vs veh, MARS / RFU, ZNF655 / Fold change vs veh, ZNF655 / RFU, FAHD1 / Fold change vs veh, FAHD1 / RFU, BDP1 / Fold change vs veh, BDP1 / RFU, LRRCC1 / Fold change vs veh, LRRCC1 / RFU, ARID1A / Fold change vs veh, ARID1A / RFU, ZNF146 / Fold change vs veh, ZNF146 / RFU, ZNF330 / Fold change vs veh, ZNF330 / RFU, GPN3 / Fold change vs veh, GPN3 / RFU, C9orf123 / Fold change vs veh, C9orf123 / RFU, N4BP2L2 / Fold change vs veh, N4BP2L2 / RFU, ARFIP1 / Fold change vs veh, ARFIP1 / RFU, FAM179B / Fold change vs veh, FAM179B / RFU, BCL10 / Fold change vs veh, BCL10 / RFU, UHRF1BP1L / Fold change vs veh, UHRF1BP1L / RFU, BET1 / Fold change vs veh, BET1 / RFU, CNOT2 / Fold change vs veh, CNOT2 / RFU, ZNF268 / Fold change vs veh, ZNF268 / Fold change vs veh, ZNF507 / RFU, DGCR2 / Fold change vs veh, DGCR2 / RFU, WDSUB1 / Fold change vs veh, WDSUB1 / Fold change vs veh, HSP90B1 /// MIR3652 / RFU, ADSS / Fold change vs veh, ADSS / RFU, GK / Fold change vs veh, GK / RFU, ZNF148 / Fold change vs veh, ZNF148 / RFU, TAF9 / Fold change vs veh, TAF9 / RFU, SLC1A5 / Fold change vs veh, SLC1A5 / RFU, SLMO2 / Fold change vs veh, SLMO2 / RFU, ABCC4 / Fold change vs veh, ABCC4 / RFU, LOC101060439 /// RAP1B / Fold change vs veh, LOC101060439 /// RAP1B / RFU, RFX7 / Fold change vs veh, RFX7 / RFU, GTPBP10 / Fold change vs veh, GTPBP10 / RFU, CNEP1R1 / Fold change vs veh, CNEP1R1 / RFU, BIVM-ERCC5 /// ERCC5 / Fold change vs veh, BIVM-ERCC5 /// ERCC5 / RFU, ILF3 / Fold change vs veh, ILF3 / RFU 11762660_at / Fold change /veh 11762660_at / RFU VCAN (11757783_s_at) / Fold change /veh VCAN (11757783_s_at) / RFU DDX43 (11728927_at) / Fold change /veh DDX43 (11728927_at) / RFU KRT8 (11758188_x_at) / Fold change /veh KRT8 (11758188_x_at) / RFU NKD1 (11759106_at) / Fold change /veh NKD1 (11759106_at) / RFU SRD5A1 (11742802_a_at) / Fold change /veh SRD5A1 (11742802_a_at) / RFU TPSAB1 /// TPSB2 (11721975_s_at) / Fold change /veh TPSAB1 /// TPSB2 (11721975_s_at) / RFU GSTM3 (11746129_a_at) / Fold change /veh GSTM3 (11746129_a_at) / RFU IL23R (11737362_x_at) / Fold change /veh IL23R (11737362_x_at) / RFU TMEM51 (11727254_a_at) / Fold change /veh TMEM51 (11727254_a_at) / RFU PIWIL2 (11732686_x_at) / Fold change /veh PIWIL2 (11732686_x_at) / RFU ORM1 (11744905_x_at) / Fold change /veh ORM1 (11744905_x_at) / RFU CCDC152 (11743942_at) / Fold change /veh CCDC152 (11743942_at) / RFU ECM1 (11717891_a_at) / Fold change /veh ECM1 (11717891_a_at) / RFU IL23R (11748794_a_at) / Fold change /veh IL23R (11748794_a_at) / RFU TNFAIP8L3 (11732012_x_at) / Fold change /veh TNFAIP8L3 (11732012_x_at) / RFU MBOAT4 (11741988_at) / Fold change /veh MBOAT4 (11741988_at) / RFU 11764193_at / Fold change /veh 11764193_at / RFU TMEM53 (11763286_at) / Fold change /veh TMEM53 (11763286_at) / RFU MAGEB2 (11727129_at) / Fold change /veh MAGEB2 (11727129_at) / RFU TMEM200A (11744735_a_at) / Fold change /veh TMEM200A (11744735_a_at) / RFU CCDC152 (11751479_a_at) / Fold change /veh CCDC152 (11751479_a_at) / RFU FAM211A (11726209_a_at) / Fold change /veh FAM211A (11726209_a_at) / RFU RGS16 (11746705_a_at) / Fold change /veh RGS16 (11746705_a_at) / RFU VCAN (11755009_s_at) / Fold change /veh VCAN (11755009_s_at) / RFU RHOB (11743442_s_at) / Fold change /veh RHOB (11743442_s_at) / RFU RGS16 (11720943_a_at) / Fold change /veh RGS16 (11720943_a_at) / RFU RGS16 (11720944_at) / Fold change /veh RGS16 (11720944_at) / RFU, VPS4B / Fold change vs veh, VPS4B / RFU, CREB1 / Fold change vs veh, CREB1 / RFU, DNAJC13 / Fold change vs veh, DNAJC13 / RFU, GNAQ / Fold change vs veh, GNAQ / RFU, CDK5R1 / Fold change vs veh, CDK5R1 / RFU, ZRANB3 / Fold change vs veh, ZRANB3 / RFU, CUL4A / Fold change vs veh, CUL4A / RFU, CCNY / Fold change vs veh, CCNY / RFU, UFL1 / Fold change vs veh, UFL1 / RFU, COG3 / Fold change vs veh, COG3 / RFU, DIAPH2 / Fold change vs veh, DIAPH2 / RFU, SKA2 / Fold change vs veh, SKA2 / RFU, AFF3 / Fold change vs veh, AFF3 / RFU, LMF1 / Fold change vs veh, LMF1 / RFU, IPO11 / Fold change vs veh, IPO11 / RFU, DFFB / Fold change vs veh, DFFB / RFU, FOXP1 / Fold change vs veh, FOXP1 / RFU, CARD8 / Fold change vs veh, CARD8 / RFU, STRN3 / Fold change vs veh, STRN3 / RFU, ADK / Fold change vs veh, ADK / RFU, RASSF2 / Fold change vs veh, RASSF2 / RFU, WIPF1 / Fold change vs veh, WIPF1 / RFU, LARP1B / Fold change vs veh, LARP1B / RFU, RASA1 / Fold change vs veh, RASA1 / RFU, RB1 / Fold change vs veh, RB1 / RFU, PPFIA1 / Fold change vs veh, PPFIA1 / RFU, MAT2A / Fold change vs veh, MAT2A / RFU, CCT5 / Fold change vs veh, CCT5 / RFU, WDR92 / Fold change vs veh, WDR92 / RFU, CUX1 / Fold change vs veh, CUX1 / RFU, TTC7A / Fold change vs veh, TTC7A / RFU, TMEM135 / Fold change vs veh, TMEM135 / RFU, DEPTOR / Fold change vs veh, DEPTOR / RFU, CPM / Fold change vs veh, CPM / RFU, DNAJB6 / Fold change vs veh, DNAJB6 / RFU, CACNA2D3 / Fold change vs veh, CACNA2D3 / RFU, DTX4 / Fold change vs veh, DTX4 / RFU, TFCP2 / Fold change vs veh, TFCP2 / RFU, GMCL1 /// GMCL1P1 / Fold change vs veh, GMCL1 /// GMCL1P1 / RFU, AEBP2 / Fold change vs veh, AEBP2 / RFU, SNHG1 /// SNORD22 /// SNORD25 /// SNORD26 /// SNORD27 /// SNORD28 /// SNORD29 /// SNORD31 / Fold change vs veh, SNHG1 /// SNORD22 /// SNORD25 /// SNORD26 /// SNORD27 /// SNORD28 /// SNORD29 /// SNORD31 / Fold change (Aza/veh), C12orf56 (ProbeSet 11735607_a_at) / Fold change (ACY-1035/veh), C12orf56 (ProbeSet 11735607_a_at) / Fold change (Aza/veh), FGFR1OP (ProbeSet 11751329_s_at) / Fold change (ACY-1035/veh), FGFR1OP (ProbeSet 11751329_s_at) / Fold change (Aza/veh), VPS36 (ProbeSet 11739960_a_at) / Fold change (ACY-1035/veh), VPS36 (ProbeSet 11739960_a_at) / RFU SYPL1 (11715823_x_at) / Fold change /veh SYPL1 (11715823_x_at) / RFU IGFBP7 (11715501_s_at) / Fold change /veh IGFBP7 (11715501_s_at) / RFU REEP3 (11722064_at) / Fold change /veh REEP3 (11722064_at) / RFU IGLL1 (11728026_x_at) / Fold change /veh IGLL1 (11728026_x_at): dose or concentration left out as unconfirmed. The conditions noted are these: MV-4-11 cells, 48 hours.

Structures are written as SMILES.

As to `Nc1ccc(-c2cccs2)cc1NC(=O)c1ccc2c(c1)cc(C1CC1)n2CCN1CCOCC1` [ACY-1035], the “Fold change /veh 11764193_at” value is listed as 1.19.
